Columns and labels:
[1] = UHT milk cream flavoured, non sweetened, different fat levels; details: 2 ppm, cream flavour 0.03%
Experimental: The following tests were carried out on dairy products processed by fermentation, pasteurization or UHT. The products contain fat, protein and calcium.
UHT Milk Cream Flavoured, Non Sweetened and Different Fat Levels
In a UHT milk containing 0% 1.5% and 3% fat, flavoured with a proprietary cream flavour dosed at 0.03%
C18:2-gaba was added at 2 ppm.
Samples were evaluated by expert tasters.
Tasters were asked to describe the samples focusing on authentic taste , mouthfeel, fullness, salivation, sweetness, juiciness, richness, long lastingness and fattiness.

[2] = Test in 3 in 1 coffee; details: 1 ppm, 3-in-1 coffee beverage with sucrose and creamer with fat
Experimental: In a 3 in 1 Coffee beverage from Nestle (market product) sweetened with sucrose and containing creamer with fat C18:2-gaba was added.
Samples were evaluated by expert tasters. Tasters were asked to describe the samples focusing on authentic taste, mouthfeel, fullness, salivation, sweetness, juiciness, richness, long lastingness and fattiness.
Base is 3-in-1 Coffee beverage (market product) sweetened with sucrose and containing creamer with fat

[3] = Tasting in spreadable cheese ERU; details: 0.5 PPM in spreadable cheese ERU
Experimental: (§1) The following formulations were prepared and tasted by trained panelists.

[4] = Test in chocolate flavoured drink; details: 2 ppm, water, 4% sucrose, chocolate flavour 0.03%
Excerpt: Test in Chocolate Flavoured Drink:
Base: Water, 4% sucrose, proprietary chocolate flavour at 0.03%

[5] = Tasting in low fat mayonnaise; details: 0.5 ppm in low fat mayonnaise (27% fat)
Experimental: as §1
Fat levels between 10-80%
Low fat Mayonnaise (27% Fat)

[6] = Test in pineapple flavoured drink; details: 1 ppm, water, 8% sugar, 0.1% citric acid, pineapple flavour 0.03%
Excerpt: Test in Pineapple Flavoured Drink:
Base is water, 8% sugar, 0.1% citric acid and proprietary pineapple flavour at 0.03%

[7] = Test in a strawberry yoghurt; details: 2 ppm, 1.5% fat yoghurt, 8% sucrose, strawberry flavour 0.015%
Excerpt: Test in a Strawberry Yoghurt
Base: Yoghurt 1.5% fat yoghurt, 8% sucrose, proprietary strawberry flavour @ 0.015%

With `CCCCC/C=C\C/C=C\CCCCCCCC(=O)NCCCC(=O)O` [C18:2-gaba] the “description by expert tasters” value ([1]; UHT milk 0% fat) was “Very creamy, milky, long lasting”, the “description by expert tasters” value ([1]; UHT milk 1.5% fat) was “very creamy, milky, long lasting, salivating” and the “description by expert tasters” value ([1]; UHT milk 3.0% fat) was “very creamy, milky, long lasting, taste like whipped cream”. The “description by expert tasters” value [2] was “very nice mouthfeel effect, creamy as if coffee creamer is added, more sweet”, the “tasting result (trained panelists)” value [3] was “Full, Salty, cheese bite, more mature” and the taste description [4] was “full, sweeter, more vanillic, milk chocolate is enhanced, very long lasting”. The “tasting result (trained panelists)” value [5] was “creamy, thick mouthfeel with a full fat impression”, the taste description [6] was “very ripe, jammy, long lasting and sweet” and the taste description [7] was “creamy, fruity authentic strawberry , stronger strawberry, ripe, long lasting, juicy”.

From US11832638B2, “N-acyl derivatives of gamma amino-butyric acid and beta alanine as food flavouring compounds” (GIVAUDAN SA, priority 2012, dated 2023)
